Publication PMC10528180 (Foods, 2023)
Where two headings read alike, the source gives them in different places.

Legend:
[1] = test system: db/db mice; test: Postprandial blood glucose level measurement after oral starch load; format: in vivo; settings: 100 mg/kg, oral starch 2 g/kg
Description: db/db mice and C57BL/6J mice were purchased f0rom Beijing Zhishan Health Medical Research Institute. The animal testing procedure was approved by Beijing Huayuan Times Technology Co., Ltd Ethics Committee on the Management and Welfare of Laboratory Animals. (Ethics review batch number: HYSD2023-04) and strictly follows the local and national codes of ethics. All mice were placed in a control chamber at 25 °C and 60% relative humidity with a light/dark period of 12/12 h. During this period, all mice had free access to normal feed and water. […] All mice were given starch (2 g/kg) orally 60 min after treatment. Blood samples were taken from the caudal vein and blood glucose was measured after 0, 30, 60, and 120 min. The area under the curve (AUC) was calculated using the trapezoidal rule.

[2] = target: T1, α-glucosidase (Saccharomyces cerevisiae, UniProt P53341); test: biochemical; settings: for inhibition at 500 µM: read-out: α-Glucosidase inhibition
T1 construct: purchased Sigma-Aldrich Co
T1 sequence (P53341 whole entry): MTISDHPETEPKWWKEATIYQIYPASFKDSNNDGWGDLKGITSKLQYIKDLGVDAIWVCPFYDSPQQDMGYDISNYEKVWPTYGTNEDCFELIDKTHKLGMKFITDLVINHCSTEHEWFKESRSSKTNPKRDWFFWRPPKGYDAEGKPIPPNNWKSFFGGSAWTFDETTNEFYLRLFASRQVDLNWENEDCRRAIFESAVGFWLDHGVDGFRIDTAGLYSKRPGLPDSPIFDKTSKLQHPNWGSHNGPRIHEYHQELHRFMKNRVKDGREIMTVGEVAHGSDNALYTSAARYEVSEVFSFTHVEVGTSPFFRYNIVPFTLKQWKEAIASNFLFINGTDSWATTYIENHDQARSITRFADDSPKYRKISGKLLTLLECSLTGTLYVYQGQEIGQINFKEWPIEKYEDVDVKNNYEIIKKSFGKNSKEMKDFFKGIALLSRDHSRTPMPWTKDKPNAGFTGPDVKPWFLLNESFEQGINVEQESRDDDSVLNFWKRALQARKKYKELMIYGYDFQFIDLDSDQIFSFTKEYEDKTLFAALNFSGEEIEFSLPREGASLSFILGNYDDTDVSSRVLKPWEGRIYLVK
Description: (§1) The other reagents used in this experiment are analytically pure reagents purchased from Sigma-Aldrich Co. (St. Louis, MI, USA) unless specified otherwise.
(§2) The in vitro α-glucosidase activity assay was determined using spectrophotometry, as previously reported, with only minor modifications. In phosphate buffer with a pH of 6.8, 0.5 U/mL of α-glucosidase and the appropriate quantity of p-nitrophenyl-D-glucopyranoside (pNGP) were produced. […] Gradient dilution with a phosphate-buffered solution was used to create sample solutions of various concentrations. First, different concentrations of compound (10 μL), an enzyme solution (40 μL), and potassium phosphate buffer (100 μL) were pre-incubated in 96-well plates at 37 °C for 10 min.
(§3) The enzymatic inhibitory activity of the tested compounds was calculated using the following formula: Inhibition %=[(Abs control−Abs sample)/Abs control]×100
(§4) The IC50 values of the tested compounds were calculated using nonlinear fitting (logit method).

[3] = target: T2, α-amylase (Sus scrofa, UniProt P00690); test: In vitro α-amylase activity assay (G3-CNP, absorbance 405 nm); format: biochemical, porcine; settings: for inhibition at 500 µM: read-out: α-Amylase inhibition
T2 construct: α-amylase (EC 232-565-6, powder, ≥5 units/mg solid) isolated from porcine pancreas; purchased Sigma-Aldrich Co; host or cells: porcine pancreas
T2 sequence (P00690 16-511): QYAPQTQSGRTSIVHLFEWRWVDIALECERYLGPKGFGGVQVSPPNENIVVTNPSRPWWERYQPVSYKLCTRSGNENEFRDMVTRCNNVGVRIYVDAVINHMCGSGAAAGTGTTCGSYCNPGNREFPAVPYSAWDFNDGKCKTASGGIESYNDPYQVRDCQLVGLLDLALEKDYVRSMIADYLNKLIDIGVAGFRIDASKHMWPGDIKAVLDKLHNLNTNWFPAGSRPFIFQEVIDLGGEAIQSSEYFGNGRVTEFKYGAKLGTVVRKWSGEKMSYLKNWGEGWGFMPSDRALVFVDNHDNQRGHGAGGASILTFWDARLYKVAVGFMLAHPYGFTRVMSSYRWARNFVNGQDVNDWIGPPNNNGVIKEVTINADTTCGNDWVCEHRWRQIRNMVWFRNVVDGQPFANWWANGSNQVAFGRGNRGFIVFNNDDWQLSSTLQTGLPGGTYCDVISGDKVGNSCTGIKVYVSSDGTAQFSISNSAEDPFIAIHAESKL
Description: as §1
as §2, with “modifications. A total” for “modifications. In phosphate buffer with a pH”, “of 5” for “of 6.8, 0.5”, “of α-amylase” for “of α-glucosidase”, “of 2-chloro-4-nitrophenyl α-D-maltotrioside (G3-CNP)” for “of p-nitrophenyl-D-glucopyranoside (pNGP)”
as §3, §4

[4] = read-out: α-amylase inhibition IC50±SEM
[5] = read-out: α-glucosidase inhibition IC50±SEM

Row | Compound | inhibition at 500 µM [2] [%] | IC50 [2] [µM] | inhibition at 500 µM ([3]; at 500 µM) [%] | IC50 [3, 4] [µM] | other results
1 | C[C@H]1O[C@H](O[C@H]2[C@H](O)[C@@H](O)[C@@H](O[C@H]3[C@H](O)[C@@H](O)C(O)O[C@@H]3CO)O[C@@H]2CO)[C@H](O)[C@@H](O)[C@@H]1N[C@H]1C=C(CO)[C@@H](O)[C@H](O)[C@H]1O (stereo partly drawn) [Acarbose, reference compound] | 49 | – | – | – | glucose AUC [1]: 43.0 mmol·h/L; reduction of glucose AUC of diabetic mice ([1]; vs model): 20.31%; inhibition at 500 µM [3]: 99%
2 | O=c1cc(-c2ccc(O)cc2)oc2cc(O[C@@H]3O[C@H](CO)[C@@H](O)[C@H](O)[C@H]3O)cc(O)c12 [Apigetrin] | 74 | 187 ± 6.93 | 12 | – | selectivity for glucosidase over α-amylase among the 12 compounds ([2]; inhibition at 500 µM of both enzymes compared): selective inhibition of glucosidase
3 | O=c1c(O[C@@H]2O[C@@H](CO)[C@H](O)[C@H]2O)c(-c2ccc(O)c(O)c2)oc2cc(O)cc(O)c12 [Avicularin] | 33 | > 500 | 19 | – | IC50 [3]: > 500 µM
4 | O=C(O[C@@H]1Cc2c(O)cc(O)cc2O[C@@H]1c1ccc(O)c(O)c1)c1cc(O)c(O)c(O)c1 [Epicatechin gallate] | 61 | > 250 | 62 | > 250 | –
5 | O=c1c(O[C@@H]2O[C@H](CO)[C@H](O)[C@H](O)[C@H]2O)c(-c2ccc(O)c(O)c2)oc2cc(O)cc(O)c12 [Hyperoside] | 48 | > 500 | 28 | > 500 | –
6 | O=c1cc(-c2ccc(O)cc2)oc2cc(O)c([C@@H]3O[C@H](CO)[C@@H](O)[C@H](O)[C@H]3O)c(O)c12 [Isovitexin] | – | – | 43 | – | IC50 [3]: > 500 µM
7 | O=c1cc(-c2ccccc2)oc2cc(O[C@@H]3O[C@H](CO)[C@@H](O)[C@H](O)[C@H]3O)c(O)c(O)c12 [Oroxin A] | 10 | – | 60 | > 250 | IC50 [2, 5]: > 500 µM
8 | O=c1c(O)c(-c2ccc(O)c(O)c2)oc2cc(O[C@@H]3O[C@H](CO)[C@@H](O)[C@H](O)[C@H]3O)c(O)c(O)c12 [Quercetagitrin] | 56 | – | 71 | > 125 | IC50 [2, 5]: > 250 µM
9 | C[C@@H]1O[C@@H](Oc2c(-c3ccc(O)c(O)c3)oc3cc(O)cc(O)c3c2=O)[C@H](O)[C@H](O)[C@H]1O [Quercitrin] | 38 | > 500 | 22 | > 500 | –
10 | O=C(O)C1OC(Oc2c(-c3ccc(O)c(O)c3)oc3cc(O)cc(O)c3c2=O)C(O)C(O)C1O (stereo not drawn) [Quercituron] | 17 | – | 42 | > 500 | IC50 [2, 5]: > 500 µM
11 | O=c1c(O[C@@H]2O[C@H](CO)[C@H](O)[C@H](O)[C@H]2O)c(-c2ccc(O)cc2)oc2cc(O)cc(O)c12 [Trifolin] | – | – | 19 | > 500 | –
12 | Catechin gallate | – | – | – | – | α-Glucosidase inhibition ([2]; at 500 µM): 94%; α-Amylase inhibition ([3]; at 500 µM): 82%
